From the supplement of paper PMC10307832

How the values were obtained:
Experiment in all cases: relative viability (nuclei count vs DMSO), 5 days (fraction); higher = more cells survive
Mirin + Lapatinib = compound: N=C1NC(=O)/C(=C/c2ccc(O)cc2)S1 [Mirin] + CS(=O)(=O)CCNCc1ccc(-c2ccc3ncnc(Nc4ccc(OCc5cccc(F)c5)c(Cl)c4)c3c2)o1 [Lapatinib] (partner 2 µM)
Summary of the method: (§1)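 Dosing by pin tool came one day after lung cancer cell lines were seeded in 1536-well plates, using either one drug or a fixed anchor-drug dose plus five library-drug doses (not always all listed) in √10 steps. After 5 days, nuclei were counted on 4× images. Relative viability is treated-well nuclei count divided by vehicle-well nuclei count, and values are medians of duplicate plates.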

Mirin + Foretinib = compound: N=C1NC(=O)/C(=C/c2ccc(O)cc2)S1 [Mirin] + COc1cc2c(Oc3ccc(NC(=O)C4(C(=O)Nc5ccc(F)cc5)CC4)cc3F)ccnc2cc1OCCCN1CCOCC1 [Foretinib] (partner 0.25 µM)
Summary of the method: as §1

[1] = compound: CCn1c(-c2nonc2N)nc2cnc(Oc3cccc(NC(=O)c4ccc(OCCN5CCOCC5)cc4)c3)cc21 + CC(C)C[C@H](NC(=O)[C@H](Cc1ccccc1)NC(=O)c1cnccn1)B(O)O [Bortezomib] (partner 0.002 µM)
Summary of the method: as §1

Mirin + Crizotinib = compound: N=C1NC(=O)/C(=C/c2ccc(O)cc2)S1 [Mirin] + C[C@@H](Oc1cc(-c2cnn(C3CCNCC3)c2)cnc1N)c1c(Cl)ccc(F)c1Cl [Crizotinib] (partner 1 µM)
Summary of the method: as §1

Cell Line	relative viability (Mirin + Lapatinib; first compound 0.25 µM)	relative viability (Mirin + Lapatinib; first compound 0.7906 µM)	relative viability (Mirin + Lapatinib; first compound 2.5 µM)	relative viability (Mirin + Lapatinib; first compound 7.906 µM)	relative viability (Mirin + Lapatinib; first compound 25 µM)	relative viability (Mirin + Foretinib; first compound 0.25 µM)	relative viability (Mirin + Foretinib; first compound 0.7906 µM)	relative viability (Mirin + Foretinib; first compound 2.5 µM)	relative viability (Mirin + Foretinib; first compound 7.906 µM)	relative viability (Mirin + Foretinib; first compound 25 µM)	relative viability ([1]; first compound 0.04 µM)	relative viability ([1]; first compound 0.1265 µM)	relative viability ([1]; first compound 0.4 µM)	relative viability ([1]; first compound 1.265 µM)	relative viability ([1]; first compound 4 µM)	relative viability (Mirin + Crizotinib; first compound 0.25 µM)	relative viability (Mirin + Crizotinib; first compound 0.7906 µM)	relative viability (Mirin + Crizotinib; first compound 2.5 µM)	relative viability (Mirin + Crizotinib; first compound 7.906 µM)	relative viability (Mirin + Crizotinib; first compound 25 µM)
NCI-H2126	0.77	0.735	0.765	0.717	0.621	1.35	1.02	1.31	1.16	1.13	1.14	1.13	0.918	1.08	1.08	1.02	1.07	0.981	0.994	1.21
NCI-H2087	1.09	1.07	0.91	1.12	1.14	1.24	1.28	1	0.943	1.08	–	0.591	0.778	0.473	0.459	0.898	1.08	0.849	0.771	1.16
RERF-LC-KJ	0.972	0.968	0.891	0.835	0.95	0.974	0.915	0.932	0.892	0.901	1.32	1.31	1.01	0.731	0.754	0.845	0.894	0.821	0.845	0.913
H3255	0.25	0.307	0.236	0.241	0.218	1.11	0.825	0.929	0.676	0.998	1.03	0.9	0.728	0.526	0.531	0.882	0.939	0.838	0.735	0.836
EMC-BAC-2	0.955	0.902	0.954	0.918	0.88	0.976	0.998	1.07	1.06	1.09	1.18	0.967	0.792	0.731	0.442	0.727	0.818	0.774	0.697	0.616
CAL-12T	0.702	–	0.92	–	0.238	1.16	–	1.12	1.04	1.31	1.23	1.08	0.834	–	0.678	0.667	0.509	0.619	0.573	0.639
NCI-H661	0.407	0.567	0.539	0.442	0.392	1.05	1.06	1.02	1.07	0.975	0.896	0.865	0.815	0.608	0.616	–	1.01	0.861	–	1.17
EBC-1	0.203	0.208	0.219	0.201	0.221	0.103	0.116	0.102	0.102	0.0881	0.771	0.566	0.537	0.458	0.342	0.21	0.221	0.166	0.194	0.21
